Measurements published in ChEMBL document CHEMBL3526141, “Characterization of human liver enzymes involved in the biotransformation of boceprevir, a hepatitis C virus protease inhibitor” (Drug Metab Dispos, 2011).
Values belong to the molecule of their own block, whether it stands above or below them.

What was measured:
[1] = Retention time of the compound by LC-MS/MS method; assay type: physicochemical
Liver cytosol [2] = assay: Drug metabolism in human liver cytosol treated with 20 uM assessed as compound formation in presence of NADPH generating system by LC-MS/MS/FSA method; assay type: ADME
[3] = Drug metabolism in human liver S9 fraction treated with 20 uM assessed as compound formation in presence of NADPH generating system by LC-MS/MS/FSA method; assay type: ADME, subcellular
Plasma = assay: Drug metabolism in human plasma treated with [14C]boceprevir assessed as ratio of drug level by LC-MS/MS method relative to boceprevir; assay type: ADME, cell-free
[4] = Drug metabolism in human liver mitochondria treated with 20 uM assessed as compound formation in presence of NADPH generating system by LC-MS/MS/FSA method; assay type: ADME
Liver cytosol [5] = assay: Drug metabolism in human liver cytosol treated with 20 uM [14C]SCH 534129 assessed as 100 uM diazepam-mediated inhibition of metabolite formation LC-MS/MS/FSA method; assay type: ADME, tissue-based; design: interact cpd dose 100 uM
Liver cytosol [6] = assay: Drug metabolism in human liver cytosol treated with 20 uM [14C]SCH 534129 assessed as 1 mM ibuprofen-mediated inhibition of metabolite formation LC-MS/MS/FSA method; assay type: ADME, tissue-based; design: interact cpd dose 1 mM
Liver cytosol [7] = assay: (§1) Drug metabolism in human liver cytosol assessed as (1R,2S,5S)-N-((2R,3R)-4-amino-1-cyclobutyl-3-hydroxy-4-oxobutan-2-yl)-3-((S)-2-(3-tert-butylureido)-3,3-dimethylbutanoyl)-6,6-dimethyl-3-azabicyclo[3.1.0]hexane-2-carboxamide formation per mg protein after 60 mins by LC-MS/MS/FSA method; assay type: ADME, tissue-based; settings: 1 h
Liver cytosol [8] = assay: (§2) Drug metabolism in human liver cytosol assessed as (1R,2S,5S)-N-((2S,3R)-4-amino-1-cyclobutyl-3-hydroxy-4-oxobutan-2-yl)-3-((S)-2-(3-tert-butylureido)-3,3-dimethylbutanoyl)-6,6-dimethyl-3-azabicyclo[3.1.0]hexane-2-carboxamide formation per mg protein after 60 mins by LC-MS/MS/FSA method; assay type: ADME, tissue-based; settings: 1 h
Liver cytosol [9] = assay: Drug metabolism in human liver cytosol assessed as (1R,2S,5S)-N-((2S,3R)-4-amino-1-cyclobutyl-3-hydroxy-4-oxobutan-2-yl)-3-((S)-2-(3-tert-butylureido)-3,3-dimethylbutanoyl)-6,6-dimethyl-3-azabicyclo[3.1.0]hexane-2-carboxamide formation after 60 mins by LC-MS/MS/FSA method; assay type: ADME, tissue-based; settings: 1 h
Liver cytosol [10] = assay: as §1, with “Ratio of Vmax to Km for drug” for “Drug”; assay type: ADME; settings: 1 h
Liver cytosol [11] = assay: as §2, with “Ratio of Vmax to Km for drug” for “Drug”; assay type: ADME; settings: 1 h
Liver cytosol [12] = assay: Drug metabolism in human liver cytosol assessed as (1R,2S,5S)-N-((2R,3R)-4-amino-1-cyclobutyl-3-hydroxy-4-oxobutan-2-yl)-3-((S)-2-(3-tert-butylureido)-3,3-dimethylbutanoyl)-6,6-dimethyl-3-azabicyclo[3.1.0]hexane-2-carboxamide formation after 60 mins by LC-MS/MS/FSA method; assay type: ADME, tissue-based; settings: 1 h
Cytochrome P450 2B6 = biological target: T1, Cytochrome P450 2B6 (Homo sapiens, UniProt P20813); assay: Drug metabolism assessed as human CYP2B6-mediated compound formation from 5 uM [14C]boceprevir after 120 mins by LC-MS/FSA method relative to total [14C]boceprevir; assay type: ADME; settings: recombinant enzyme, 2 h
T1 sequence (P20813 whole entry): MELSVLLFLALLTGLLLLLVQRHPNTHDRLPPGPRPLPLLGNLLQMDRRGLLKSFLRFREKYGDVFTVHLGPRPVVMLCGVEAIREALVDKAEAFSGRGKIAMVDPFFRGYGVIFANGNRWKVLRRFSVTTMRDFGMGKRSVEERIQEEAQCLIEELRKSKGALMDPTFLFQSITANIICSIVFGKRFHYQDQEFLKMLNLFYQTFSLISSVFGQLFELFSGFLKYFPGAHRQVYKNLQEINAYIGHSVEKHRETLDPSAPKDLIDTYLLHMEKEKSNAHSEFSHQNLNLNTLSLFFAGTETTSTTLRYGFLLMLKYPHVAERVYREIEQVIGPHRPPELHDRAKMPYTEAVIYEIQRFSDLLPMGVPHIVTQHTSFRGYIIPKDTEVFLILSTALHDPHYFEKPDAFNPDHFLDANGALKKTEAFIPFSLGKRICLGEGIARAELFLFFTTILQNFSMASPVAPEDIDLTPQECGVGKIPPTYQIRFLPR

Cytochrome P450 2C19 = Cytochrome P450 2C19 (Homo sapiens, UniProt P33261); assay: Drug metabolism assessed as human CYP2C19-mediated compound formation from 5 uM [14C]boceprevir after 120 mins by LC-MS/FSA method relative to total [14C]boceprevir; assay type: ADME; settings: recombinant enzyme, 2 h
Chain of Cytochrome P450 2C19 (P33261 whole entry): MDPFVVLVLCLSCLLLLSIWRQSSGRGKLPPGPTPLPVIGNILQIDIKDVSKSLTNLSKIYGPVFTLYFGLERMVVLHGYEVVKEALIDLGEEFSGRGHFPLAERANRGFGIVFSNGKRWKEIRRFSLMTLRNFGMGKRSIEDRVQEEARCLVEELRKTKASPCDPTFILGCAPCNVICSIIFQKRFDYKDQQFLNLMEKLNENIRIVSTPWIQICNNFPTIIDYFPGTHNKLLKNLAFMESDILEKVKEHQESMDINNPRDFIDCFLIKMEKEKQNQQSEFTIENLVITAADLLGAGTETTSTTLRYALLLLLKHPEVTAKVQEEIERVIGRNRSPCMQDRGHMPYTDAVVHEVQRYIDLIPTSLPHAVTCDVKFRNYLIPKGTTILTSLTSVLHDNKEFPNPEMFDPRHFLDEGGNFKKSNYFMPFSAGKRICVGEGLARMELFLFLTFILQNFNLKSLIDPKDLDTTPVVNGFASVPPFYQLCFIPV

Cytochrome P450 3A5 [13] = biological target: T2, Cytochrome P450 3A5 (Homo sapiens, UniProt P20815); assay: Drug metabolism assessed as human CYP3A5-mediated compound formation from 20 uM [14C]boceprevir after 120 mins by LC-MS/FSA method relative to total [14C]boceprevir; assay type: ADME; settings: recombinant enzyme, 2 h
T2 sequence (P20815 whole entry): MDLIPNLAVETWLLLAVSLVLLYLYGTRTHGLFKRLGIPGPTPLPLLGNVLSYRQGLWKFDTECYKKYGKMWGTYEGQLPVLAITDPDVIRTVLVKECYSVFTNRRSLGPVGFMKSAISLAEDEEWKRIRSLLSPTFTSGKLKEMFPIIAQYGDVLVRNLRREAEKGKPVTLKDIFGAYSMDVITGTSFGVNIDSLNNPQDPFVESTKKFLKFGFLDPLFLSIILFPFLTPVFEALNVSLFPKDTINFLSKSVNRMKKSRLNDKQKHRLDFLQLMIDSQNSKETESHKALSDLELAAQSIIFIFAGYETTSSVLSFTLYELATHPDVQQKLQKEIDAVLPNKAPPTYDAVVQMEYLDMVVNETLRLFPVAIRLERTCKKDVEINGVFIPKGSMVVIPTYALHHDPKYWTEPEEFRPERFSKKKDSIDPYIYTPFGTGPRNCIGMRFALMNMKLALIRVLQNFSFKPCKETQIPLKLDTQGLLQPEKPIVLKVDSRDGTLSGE

Liver microsome [14] = assay: Drug metabolism in human liver microsomes treated with 5 uM [14C]boceprevir assessed as compound formation by LC-MS/FSA method relative to total [14C]boceprevir; assay type: ADME
Cytochrome P450 3A5 [15] = biological target: T2, Cytochrome P450 3A5; assay: Drug metabolism assessed as human CYP3A5-mediated compound formation from 5 uM [14C]boceprevir after 120 mins by LC-MS/FSA method relative to total [14C]boceprevir; assay type: ADME; settings: recombinant enzyme, 2 h
Cytochrome P450 3A4 [16] = biological target: T3, Cytochrome P450 3A4 (Homo sapiens, UniProt P08684); assay: Drug metabolism assessed as human CYP3A4-mediated compound formation from 5 uM [14C]boceprevir after 120 mins by LC-MS/FSA method relative to total [14C]boceprevir; assay type: ADME; settings: recombinant enzyme, 2 h
T3 sequence (P08684 whole entry): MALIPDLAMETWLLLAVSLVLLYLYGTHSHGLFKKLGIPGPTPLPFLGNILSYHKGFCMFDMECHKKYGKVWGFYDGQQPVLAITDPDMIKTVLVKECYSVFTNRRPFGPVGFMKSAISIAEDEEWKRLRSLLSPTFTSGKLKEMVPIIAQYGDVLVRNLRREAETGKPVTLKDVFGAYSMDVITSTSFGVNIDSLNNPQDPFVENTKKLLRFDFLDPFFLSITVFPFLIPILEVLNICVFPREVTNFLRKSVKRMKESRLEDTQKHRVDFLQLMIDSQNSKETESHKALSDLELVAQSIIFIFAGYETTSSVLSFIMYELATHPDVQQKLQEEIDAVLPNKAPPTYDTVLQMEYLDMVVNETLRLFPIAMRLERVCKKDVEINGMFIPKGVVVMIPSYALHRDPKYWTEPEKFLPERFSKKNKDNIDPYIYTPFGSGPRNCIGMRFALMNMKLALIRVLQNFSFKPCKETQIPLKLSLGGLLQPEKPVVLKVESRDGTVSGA

Cytochrome P450 3A4 [17] = biological target: T3, Cytochrome P450 3A4; assay: Drug metabolism assessed as human CYP3A4-mediated compound formation from 20 uM [14C]boceprevir after 120 mins by LC-MS/FSA method relative to total [14C]boceprevir; assay type: ADME; settings: recombinant enzyme, 2 h
Cytochrome P450 4F3 = biological target: T4, Cytochrome P450 4F3 (Homo sapiens, UniProt Q08477); assay: Drug metabolism assessed as human CYP4F3A-mediated compound formation from 5 uM [14C]boceprevir after 120 mins by LC-MS/FSA method relative to total [14C]boceprevir; assay type: ADME; settings: recombinant enzyme, 2 h
T4 sequence (Q08477 whole entry): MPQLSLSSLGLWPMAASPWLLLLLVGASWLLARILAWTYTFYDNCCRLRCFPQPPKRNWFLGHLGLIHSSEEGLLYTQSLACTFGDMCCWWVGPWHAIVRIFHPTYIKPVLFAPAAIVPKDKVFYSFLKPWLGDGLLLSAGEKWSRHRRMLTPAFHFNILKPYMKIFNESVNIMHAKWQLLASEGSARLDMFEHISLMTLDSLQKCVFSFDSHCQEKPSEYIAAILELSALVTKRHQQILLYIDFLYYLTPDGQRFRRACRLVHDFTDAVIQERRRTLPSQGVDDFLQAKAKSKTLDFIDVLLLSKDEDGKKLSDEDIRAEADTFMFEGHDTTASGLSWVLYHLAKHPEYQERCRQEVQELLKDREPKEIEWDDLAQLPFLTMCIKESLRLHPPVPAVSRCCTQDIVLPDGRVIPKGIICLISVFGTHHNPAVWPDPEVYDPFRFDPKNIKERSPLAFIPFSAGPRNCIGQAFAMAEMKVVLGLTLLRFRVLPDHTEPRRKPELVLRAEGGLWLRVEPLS

Cytochrome P450 1A1 = biological target: T5, Cytochrome P450 1A1 (Homo sapiens, UniProt P04798); assay: (§3) Drug metabolism assessed as human […]-mediated compound formation from 5 uM [14C]boceprevir after 120 mins by LC-MS/FSA method relative to total [14C]boceprevir; assay type: ADME; settings: recombinant enzyme, 2 h
T5 sequence (P04798 whole entry): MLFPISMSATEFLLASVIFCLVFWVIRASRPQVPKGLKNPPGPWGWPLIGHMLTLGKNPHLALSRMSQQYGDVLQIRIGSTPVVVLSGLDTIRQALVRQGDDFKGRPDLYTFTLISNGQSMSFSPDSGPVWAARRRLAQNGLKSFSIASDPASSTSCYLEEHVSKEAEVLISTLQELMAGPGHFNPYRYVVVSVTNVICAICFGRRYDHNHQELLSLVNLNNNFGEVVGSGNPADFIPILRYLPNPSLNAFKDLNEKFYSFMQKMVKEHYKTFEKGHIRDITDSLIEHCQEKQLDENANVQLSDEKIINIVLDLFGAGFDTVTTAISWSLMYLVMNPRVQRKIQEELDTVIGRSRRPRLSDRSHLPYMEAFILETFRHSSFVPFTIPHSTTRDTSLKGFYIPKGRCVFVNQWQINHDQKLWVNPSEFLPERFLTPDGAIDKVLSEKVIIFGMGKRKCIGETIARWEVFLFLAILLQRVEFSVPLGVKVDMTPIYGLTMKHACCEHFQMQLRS

Cytochrome P450 1A2 = biological target: T6, Cytochrome P450 1A2 (Homo sapiens, UniProt P05177); assay: as §3; assay type: ADME; settings: recombinant enzyme, 2 h
T6 sequence (P05177 whole entry): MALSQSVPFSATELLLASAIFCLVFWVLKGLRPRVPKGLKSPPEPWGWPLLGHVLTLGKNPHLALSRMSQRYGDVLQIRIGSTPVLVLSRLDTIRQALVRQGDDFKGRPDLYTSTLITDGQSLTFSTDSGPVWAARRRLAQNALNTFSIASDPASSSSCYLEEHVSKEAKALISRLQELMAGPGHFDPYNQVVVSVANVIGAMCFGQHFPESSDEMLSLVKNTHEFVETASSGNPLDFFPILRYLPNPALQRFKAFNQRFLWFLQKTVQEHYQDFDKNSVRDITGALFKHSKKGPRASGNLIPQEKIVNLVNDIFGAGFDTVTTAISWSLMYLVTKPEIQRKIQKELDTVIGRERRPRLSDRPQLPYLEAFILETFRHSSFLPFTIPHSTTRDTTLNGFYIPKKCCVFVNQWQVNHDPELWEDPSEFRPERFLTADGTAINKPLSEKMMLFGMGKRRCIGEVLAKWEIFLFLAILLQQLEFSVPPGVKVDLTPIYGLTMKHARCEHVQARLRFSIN

Liver microsome [18] = assay: Drug metabolism in human liver microsomes treated with 20 uM [14C]boceprevir assessed as compound formation by LC-MS/FSA method relative to total [14C]boceprevir; assay type: ADME

Retention_time [1]: 43.1 min
Compound recovery (Liver cytosol [2]): 32%
Compound recovery [3]: 32%
Compound recovery (Plasma): >= 50%
Compound recovery [4]: 32%
inhibition (INH) (Liver cytosol [5]): 78%
inhibition (INH) (Liver cytosol [6]): 63%
SMILES: CC(C)(C)NC(=O)N[C@H](C(=O)N1C[C@H]2[C@@H]([C@H]1C(=O)N[C@H](CC1CCC1)[C@@H](O)C(N)=O)C2(C)C)C(C)(C)C

Vmax (Liver cytosol [7]): 34.9 pmol/min
Vmax (Liver cytosol [8]): 28.6 pmol/min
Km (Liver cytosol [9]): 13 µM
Vmax/Km (Liver cytosol [10]): 2.8 µL/min
Vmax/Km (Liver cytosol [11]): 2.2 µL/min
Km (Liver cytosol [12]): 12.5 µM
SMILES: CC(C)(C)NC(=O)N[C@H](C(=O)N1C[C@H]2[C@@H]([C@H]1C(=O)NC(CC1CCC1)C(=O)C(N)=O)C2(C)C)C(C)(C)C (stereo in doubt) [BOCEPREVIR]

Compound recovery (Cytochrome P450 2B6): 0.22%
Compound recovery (Cytochrome P450 2C19): 0.29%
Compound recovery (Cytochrome P450 3A5 [13]): < 0.81%
Retention_time [1]: 16.6 min
Compound recovery (Liver microsome [14]): 4.2%
Compound recovery (Cytochrome P450 3A5 [15]): 2.22%
Compound recovery (Cytochrome P450 3A4 [16]): 4.57%
Compound recovery (Cytochrome P450 3A4 [17]): 0.58%
Compound recovery (Plasma): <= 10%
Compound recovery (Cytochrome P450 4F3): 0.24%
Compound recovery (Cytochrome P450 1A1): 0.33%
Compound recovery (Cytochrome P450 1A2): 0.29%
Compound recovery (Liver microsome [18]): 1.1%
SMILES: CC(C)(C)NC(=O)N[C@H](C(=O)N1C[C@H]2[C@@H]([C@H]1C(=O)O)C2(C)C)C(C)(C)C
